The text below walks through data of paper PMC9719519, “Non-classical ferroptosis inhibition by a small molecule targeting PHB2” (Nature Communications, 2022).

Experiment in all cases: biochemical
What all share (set-up): Eurofins recombinant human kinase profiling, remaining kinase activity as % of control, 10 uM ATP
Common to all, as to conditions: ATP 10 uM; read-out: %Ctrl@10 μM

One test deals with T1, IR(h), activated (Homo sapiens, UniProt P06213).
T1 construct: gene INSR
In short, it runs like this:
(§1)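 Recombinant human kinases, 401 in total, screened using an outsourced kinase profiling assay.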

In another test the target is T2, CK1γ1(h) (Homo sapiens, UniProt Q9HCP0).
T2 construct: gene CSNK1G1
In short, it runs like this: as §1

The next test deals with T3, PDGFRα(V561D)(h) (Homo sapiens, UniProt P16234, V561D).
T3 construct: gene PDGFRA
In short, it runs like this:
as §1

A further test deals with T4, SAPK3(h) (Homo sapiens, UniProt P53778).
T4 construct: gene MAPK12
In short, it runs like this: as §1

The next test has as its target NEK9(h) (Homo sapiens, UniProt Q8TD19). In short, it runs like this:
as §1

The target of the next test is PAK4(h) (Homo sapiens, UniProt O96013). In short, it runs like this: as §1
Another test concerns the target TSSK3(h) (Homo sapiens, UniProt Q96PN8). The procedure, abridged: as §1
For another test, the target named is T5, ACTR2(h) (Homo sapiens, UniProt P27037).
T5 construct: gene ACVR2A
The procedure, abridged:
as §1

The target in a further test is Wee1(h) (Homo sapiens, UniProt P30291). The procedure, abridged:
as §1

Another test has as its target T6, IGF-1R(h), activated (Homo sapiens, UniProt P08069).
T6 construct: gene IGF1R
In short, it runs like this: as §1

In the next test the target is NEK11(h) (Homo sapiens, UniProt Q8NG66). In short, it runs like this: as §1
The target in the next test is Flt3(D835Y)(h) (Homo sapiens, UniProt P36888, D835Y). In short, it runs like this:
as §1

Another test concerns the target AAK1(h) (Homo sapiens, UniProt Q2M2I8). In short, it runs like this:
as §1

A further test deals with T7, CDK5/p35(h) (Homo sapiens, UniProt Q00535).
T7 construct: p35
In short, it runs like this: as §1

For a further test, the target named is T8, DRAK1(h) (Homo sapiens, UniProt Q9UEE5).
T8 construct: gene STK17A
The procedure, abridged:
as §1

A further test addresses T9, Fms(h) (Homo sapiens, UniProt P07333).
T9 construct: gene CSF1R
The procedure, abridged:
as §1

For another test, the target named is T10, MKK3(h) (Homo sapiens, UniProt P46734).
T10 construct: gene MAP2K3
The procedure, abridged:
as §1

The target in a further test is EGFR(L858R)(h) (Homo sapiens, UniProt P00533, L858R). The procedure, abridged:
as §1

The next test deals with T11, PKCι(h) (Homo sapiens, UniProt P41743).
T11 construct: gene PRKCI
The procedure, abridged: as §1

The next test deals with CDK6/cyclinD3(h) (Homo sapiens, UniProt Q00534). The procedure, abridged: as §1
For the next test, the target named is EGFR(L861Q)(h) (Homo sapiens, UniProt P00533, L861Q). In short, it runs like this: as §1
The target of the next test is EphA1(h) (Homo sapiens, UniProt P21709). In short, it runs like this: as §1

T2 sequence (Q9HCP0 whole entry): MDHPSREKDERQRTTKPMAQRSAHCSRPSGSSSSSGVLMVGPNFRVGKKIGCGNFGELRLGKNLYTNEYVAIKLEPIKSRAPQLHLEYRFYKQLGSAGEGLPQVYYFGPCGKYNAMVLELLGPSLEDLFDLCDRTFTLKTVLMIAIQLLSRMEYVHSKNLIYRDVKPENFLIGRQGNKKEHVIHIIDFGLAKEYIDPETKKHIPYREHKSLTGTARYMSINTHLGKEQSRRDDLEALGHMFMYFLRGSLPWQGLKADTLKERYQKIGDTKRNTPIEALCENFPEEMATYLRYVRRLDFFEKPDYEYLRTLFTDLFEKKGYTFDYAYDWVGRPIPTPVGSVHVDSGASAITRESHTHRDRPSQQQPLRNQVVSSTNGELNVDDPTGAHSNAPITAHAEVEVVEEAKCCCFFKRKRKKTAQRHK
AAK1(h), sequence (Q2M2I8 whole entry): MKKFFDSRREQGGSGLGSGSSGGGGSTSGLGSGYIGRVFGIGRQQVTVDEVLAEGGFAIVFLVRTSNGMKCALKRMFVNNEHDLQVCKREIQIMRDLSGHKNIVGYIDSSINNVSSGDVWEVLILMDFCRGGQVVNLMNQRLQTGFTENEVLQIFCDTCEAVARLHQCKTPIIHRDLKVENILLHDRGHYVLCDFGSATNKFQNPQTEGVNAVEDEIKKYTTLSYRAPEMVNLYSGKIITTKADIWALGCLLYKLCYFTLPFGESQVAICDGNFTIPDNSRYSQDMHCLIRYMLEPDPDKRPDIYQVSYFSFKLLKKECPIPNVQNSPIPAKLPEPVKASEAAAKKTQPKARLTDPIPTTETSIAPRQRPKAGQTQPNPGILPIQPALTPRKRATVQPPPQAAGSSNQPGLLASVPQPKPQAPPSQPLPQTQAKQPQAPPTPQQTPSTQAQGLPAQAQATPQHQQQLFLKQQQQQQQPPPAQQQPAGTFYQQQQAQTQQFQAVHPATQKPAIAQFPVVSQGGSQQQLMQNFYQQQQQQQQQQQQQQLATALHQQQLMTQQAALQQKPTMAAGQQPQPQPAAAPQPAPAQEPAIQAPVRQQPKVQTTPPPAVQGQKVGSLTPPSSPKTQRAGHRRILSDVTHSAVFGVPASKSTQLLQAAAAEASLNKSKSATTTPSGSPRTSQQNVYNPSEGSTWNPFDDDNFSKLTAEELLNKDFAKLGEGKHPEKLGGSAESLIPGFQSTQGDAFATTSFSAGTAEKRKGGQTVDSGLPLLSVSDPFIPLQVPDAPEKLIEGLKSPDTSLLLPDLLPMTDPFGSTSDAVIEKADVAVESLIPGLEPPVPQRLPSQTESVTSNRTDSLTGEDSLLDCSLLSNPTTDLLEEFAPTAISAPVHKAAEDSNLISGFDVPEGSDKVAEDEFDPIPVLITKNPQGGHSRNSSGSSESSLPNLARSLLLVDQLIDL
PAK4(h), sequence (O96013 whole entry): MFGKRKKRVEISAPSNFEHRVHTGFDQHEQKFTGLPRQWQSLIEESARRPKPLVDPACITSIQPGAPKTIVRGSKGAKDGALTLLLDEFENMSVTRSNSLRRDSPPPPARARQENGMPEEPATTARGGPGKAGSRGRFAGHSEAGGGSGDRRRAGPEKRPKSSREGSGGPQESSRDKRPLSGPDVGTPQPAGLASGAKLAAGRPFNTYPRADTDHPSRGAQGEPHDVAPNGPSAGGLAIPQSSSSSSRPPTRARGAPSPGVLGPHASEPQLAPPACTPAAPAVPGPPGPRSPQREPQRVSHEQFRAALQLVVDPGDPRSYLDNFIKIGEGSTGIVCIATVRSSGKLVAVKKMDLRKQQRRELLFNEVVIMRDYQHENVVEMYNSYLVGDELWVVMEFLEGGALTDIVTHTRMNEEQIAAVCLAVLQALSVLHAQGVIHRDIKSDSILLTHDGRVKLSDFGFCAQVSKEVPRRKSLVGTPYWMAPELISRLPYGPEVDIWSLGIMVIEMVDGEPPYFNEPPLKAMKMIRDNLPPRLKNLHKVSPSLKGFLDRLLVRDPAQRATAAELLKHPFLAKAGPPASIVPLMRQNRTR
T11 sequence (P41743 whole entry): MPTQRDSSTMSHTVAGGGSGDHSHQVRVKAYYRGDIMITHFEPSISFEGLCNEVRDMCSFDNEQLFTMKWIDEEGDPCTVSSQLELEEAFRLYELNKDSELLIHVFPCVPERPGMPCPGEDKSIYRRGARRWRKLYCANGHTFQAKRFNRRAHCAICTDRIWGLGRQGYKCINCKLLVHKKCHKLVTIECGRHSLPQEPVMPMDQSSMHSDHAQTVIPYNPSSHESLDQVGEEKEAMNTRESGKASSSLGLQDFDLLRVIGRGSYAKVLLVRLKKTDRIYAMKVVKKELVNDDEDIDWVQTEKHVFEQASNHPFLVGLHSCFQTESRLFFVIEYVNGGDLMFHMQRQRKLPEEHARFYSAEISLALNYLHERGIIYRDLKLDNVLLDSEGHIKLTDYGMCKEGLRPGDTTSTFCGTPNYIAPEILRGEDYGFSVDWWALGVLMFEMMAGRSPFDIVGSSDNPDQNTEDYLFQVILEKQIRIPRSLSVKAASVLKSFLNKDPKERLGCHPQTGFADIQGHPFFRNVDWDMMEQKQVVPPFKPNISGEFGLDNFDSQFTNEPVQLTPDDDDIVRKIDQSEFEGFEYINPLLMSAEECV
T3 sequence (P16234 whole entry V561D): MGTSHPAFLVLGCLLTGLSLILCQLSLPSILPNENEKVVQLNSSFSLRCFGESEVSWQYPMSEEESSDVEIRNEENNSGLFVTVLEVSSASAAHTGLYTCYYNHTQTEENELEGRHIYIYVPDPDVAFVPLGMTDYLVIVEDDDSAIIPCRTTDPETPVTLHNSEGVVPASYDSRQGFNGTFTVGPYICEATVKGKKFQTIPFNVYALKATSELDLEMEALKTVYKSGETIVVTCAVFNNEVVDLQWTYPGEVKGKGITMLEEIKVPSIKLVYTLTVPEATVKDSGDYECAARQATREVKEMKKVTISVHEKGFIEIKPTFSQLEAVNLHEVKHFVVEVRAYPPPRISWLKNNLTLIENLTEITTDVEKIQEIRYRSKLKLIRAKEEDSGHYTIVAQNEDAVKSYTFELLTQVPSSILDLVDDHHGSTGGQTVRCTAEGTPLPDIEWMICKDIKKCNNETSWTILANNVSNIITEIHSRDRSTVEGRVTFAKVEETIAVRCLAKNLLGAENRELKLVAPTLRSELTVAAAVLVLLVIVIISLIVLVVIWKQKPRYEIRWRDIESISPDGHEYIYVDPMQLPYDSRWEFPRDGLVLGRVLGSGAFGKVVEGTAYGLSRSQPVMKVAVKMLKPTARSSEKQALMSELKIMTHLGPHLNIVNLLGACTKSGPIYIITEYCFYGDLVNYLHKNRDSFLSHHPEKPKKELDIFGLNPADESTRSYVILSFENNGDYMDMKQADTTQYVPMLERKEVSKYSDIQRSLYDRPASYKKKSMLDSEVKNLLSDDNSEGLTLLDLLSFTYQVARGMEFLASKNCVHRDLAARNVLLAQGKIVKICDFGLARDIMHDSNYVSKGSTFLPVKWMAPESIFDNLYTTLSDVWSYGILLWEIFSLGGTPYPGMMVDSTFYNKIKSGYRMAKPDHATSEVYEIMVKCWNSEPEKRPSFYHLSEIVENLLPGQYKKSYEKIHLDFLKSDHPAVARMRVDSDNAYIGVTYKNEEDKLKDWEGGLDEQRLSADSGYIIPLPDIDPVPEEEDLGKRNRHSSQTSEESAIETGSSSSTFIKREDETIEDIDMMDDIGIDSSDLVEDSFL
NEK11(h), sequence (Q8NG66 whole entry): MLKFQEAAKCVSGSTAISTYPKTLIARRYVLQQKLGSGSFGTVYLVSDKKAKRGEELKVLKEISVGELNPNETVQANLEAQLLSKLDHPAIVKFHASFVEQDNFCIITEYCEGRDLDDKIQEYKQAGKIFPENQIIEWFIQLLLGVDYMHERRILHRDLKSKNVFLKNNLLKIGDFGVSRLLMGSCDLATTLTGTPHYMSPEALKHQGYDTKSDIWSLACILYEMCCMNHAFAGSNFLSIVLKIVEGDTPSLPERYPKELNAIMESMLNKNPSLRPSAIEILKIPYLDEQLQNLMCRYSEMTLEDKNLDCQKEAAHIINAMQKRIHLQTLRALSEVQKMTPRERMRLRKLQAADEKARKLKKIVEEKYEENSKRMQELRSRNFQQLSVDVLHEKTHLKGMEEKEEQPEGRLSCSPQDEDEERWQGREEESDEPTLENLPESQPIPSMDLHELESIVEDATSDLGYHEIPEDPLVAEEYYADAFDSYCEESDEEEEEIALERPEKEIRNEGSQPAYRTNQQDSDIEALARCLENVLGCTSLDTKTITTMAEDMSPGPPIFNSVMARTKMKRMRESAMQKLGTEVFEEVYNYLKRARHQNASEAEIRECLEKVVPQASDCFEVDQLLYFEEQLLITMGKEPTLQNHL
T4 sequence (P53778 whole entry): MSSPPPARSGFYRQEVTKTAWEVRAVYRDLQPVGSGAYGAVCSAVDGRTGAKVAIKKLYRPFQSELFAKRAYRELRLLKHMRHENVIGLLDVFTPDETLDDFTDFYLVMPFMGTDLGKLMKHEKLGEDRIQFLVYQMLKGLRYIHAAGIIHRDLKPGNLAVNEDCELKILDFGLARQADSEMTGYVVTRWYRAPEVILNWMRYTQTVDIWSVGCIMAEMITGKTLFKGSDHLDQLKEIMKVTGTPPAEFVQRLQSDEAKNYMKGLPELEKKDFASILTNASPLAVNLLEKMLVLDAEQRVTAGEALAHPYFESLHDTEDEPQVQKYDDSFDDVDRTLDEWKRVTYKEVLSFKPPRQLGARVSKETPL
T10 sequence (P46734 whole entry): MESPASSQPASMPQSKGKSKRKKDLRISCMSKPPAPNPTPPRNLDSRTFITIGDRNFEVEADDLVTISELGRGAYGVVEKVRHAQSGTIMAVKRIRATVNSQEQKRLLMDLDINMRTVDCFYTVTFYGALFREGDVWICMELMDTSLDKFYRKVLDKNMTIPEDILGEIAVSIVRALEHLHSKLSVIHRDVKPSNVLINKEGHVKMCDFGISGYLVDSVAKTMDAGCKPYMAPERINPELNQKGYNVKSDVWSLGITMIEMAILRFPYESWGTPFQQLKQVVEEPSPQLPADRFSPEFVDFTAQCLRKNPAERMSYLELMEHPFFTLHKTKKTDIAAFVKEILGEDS

With `C1=C(c2nc(-c3cnn(C4CCNCC4)c3)cn3cc(-c4ccccc4)nc23)CCOC1` [YL-939], the remaining activity at 10 µM turned out to be 91% on IR(h), activated; 112% at CK1γ1(h); 101% on PDGFRα(V561D)(h); 75% at SAPK3(h); 99% on NEK9(h); 97% at PAK4(h). The remaining activity at 10 µM at TSSK3(h) turned out to be 87%; at ACTR2(h) it was 94%; at Wee1(h), 99%; on IGF-1R(h), activated, 95%; on NEK11(h), 86%; on Flt3(D835Y)(h), 95%. In addition, the remaining activity at 10 µM at AAK1(h) was 68%; at CDK5/p35(h), 100%; on DRAK1(h), 60%; on Fms(h), 122%; at MKK3(h), 107%; on EGFR(L858R)(h), 86%. Also, the remaining activity at 10 µM amounted to 85% at PKCι(h), 94% at CDK6/cyclinD3(h), 61% at EGFR(L861Q)(h) and 109% at EphA1(h).
